According to patent publication US10287328B2, “Treatment of diabetes, toll-like receptor 4 modulators and methods for using the same” (KeMyth Biotech Co., Ltd., priority 2016, dated 2019):

What was measured:
[1] = test system: sICAM-1, sVCAM-1, sE-selectin; assay: Serum sICAM-1, sVCAM-1 and sE-selectin (ELISA) in HFD-induced type 2 diabetic rats; type: in vivo, Sprague-Dawley rats; details: STZ-injected HFD-fed rats, compared to STZ+vehicle
Description: The Sprague-Dawley rats were allocated to two dietary regimens by feeding either normal or HFD ad libitum, for the initial period of 2 weeks. After 2 weeks of dietary manipulation, the group of rats fed HFD were injected intraperitoneally (i.p.) with a low dose of STZ (35 mg/kg b.w.), while the respective control rats were given vehicle citrate buffer (pH 4.5) in a dose volume of 1 mL/kg, i.p. Seven days after STZ injection, rats were screened for blood glucose levels. Overnight fasted (10-12 hours) animals were given glucose (3 g/kg b.w.) by gastric intubation. After 2 hours of oral administration, blood samples were taken from lateral tail vein, left to coagulate and centrifuged; then serum glucose concentration was measured. Rats having serum glucose ≥200 mg/dL after 2 hours of glucose intake were considered diabetic and selected for further pharmacological studies. The rats were allowed to continue to feed on their respective diets until the end of the study (16).
The experimental animals were divided into three groups, each group comprising six rats designated as follows: (1) group 1 served as control rats (non-DM control); (2) group 2 served as diabetic control rats (STZ+vehicle); and (3) group 3 served as diabetic treatment rats administered with C70PLY4 (2 mg/kg/3 days) in aqueous suspension i.p. for 30 days (STZ+C70PLY4). By the end of the experiment, animals were sacrificed and blood samples, muscle and liver were obtained.
The levels of insulin, sICAM-1, sVCAM-1, and E-selectin in serum were determined by using sandwich ELISA (R&D) according to manufacturer's protocols.

[2] = test system: neointima formation of aorta; assay: Neointima formation of aorta (HE stain) in STZ-treated HFD-fed rats; type: in vivo
Description: The ascending part of aorta were taken from mice, including control health mice and HFD induced diabetic mice, with and without treatment of C70PLY4, and kept in 10% formalin buffered for 24 h. The specimens were routinely embedded in paraffin blocks and cut in transversal sections (3 μm). The slides were stained with hematoxylin and eosin. The specimens were analyzed with light microscope.
The present study determined if C70PLY4 attenuates the status of atherosclerosis in HFD-fed rats.

HUVEC = assay: Low shear stress experiment on HUVEC (morphology, F-actin immunofluorescence); type: cell-based, human; details: peptide pre-treatment 1 hour (100 mM), shear stress 4 dyn/cm^2 for 6 hours
Description: HUVEC was purchased by ScienCell Research Laboratories (CA, USA). The pellet was resuspended in M199 culture medium supplemented with penicillin/streptomycin and 20% fetal bovine serum (FBS), after which the cells were plated onto cell culture dishes. ECs were grown in Petri dishes for three days and then seeded onto glass slides pre-coated with rat tail type I collagen. Secondary cultures were used for the experiments within two days after reaching confluence (˜1-2×10^5 cells/cm^2).^12
HUVECs was mounted on a slide in a parallel-plate flow chamber, which was connected to a perfusion loop system (15). The system was kept in a constant-temperature, maintained at pH 7.4 by gassing with 5% CO2. The osmolality of the medium was kept in the range 285-295 mOsm/kg during perfusion. The flow channel width (w) was 1 cm and the channel height (h) was 0.025 cm. […]
After exposing to shear stress with or without peptide treatment, HUVECs were washed, fixed with 4% formaldehyde, and permeabilized by 1% Triton X-100 in PBS at 37° C. for 30 min. […] Intracytoplasmic F-actin immunofluorescence was detected by staining with phalloidin-fluorescein isothiocyanate (FITC) (1:1000 eBioscience) for 1 hr at room temperature, and cell nuclear stained with 4′,6-diamidino-2-phenylindole (DAPI) for 10 min at room temperature. Fluorescent cells were photographed by a fluorescence microscope with CCD (OLYMPUS).

[3] = test system: ERK1/2 and NFκB-p65 subunit phosphorylation; assay: Western blot of LPS-induced ERK1/2 and NFκB-p65 phosphorylation in HUVECs; type: cell-based, human; details: LPS 1 μg/mL plus C70PLY4 100, 300 and 500 nM, 24 h
Description: Cells were kept as the control, treated with LPS (1 μg/mL), or co-treated with LPS (1 μg/mL) and C70PLY4 (100, 300, and 500 nM) for 24 h and the phosphorylation of ERK1/2 and NFκB-p65 subunit were determined by Western blot. Cells were collected by scraping and lysed with RIPA buffer containing 1% NP-40, 0.5% sodium deoxycholate, 0.1% SDS, and a protease inhibitor mixture (PMSF, aprotinin, and sodium orthovanadate). The total cell lysate (50 μg of protein) was separated by SDS-polyacrylamide gel electrophoresis (PAGE) (10% running, 4% stacking) and transferred onto a polyvinylidene fluoride membrane (Immobilon P, 0.45-μm pore size). The membrane was then incubated with the designated antibodies. Immunodetection was performed by using the Western-Light chemiluminescent detection system (Applied Biosystems, Foster City, Calif.).
The present study determined if C70PLY4 inhibits LPS-induced signaling, including protein ERK1/2 and NFκB-p65 subunit, in the human umbilical vein endothelial cells (HUVECs) by using western blot assay (FIG. 14, panel A). The cells were kept as control, treated with LPS (1 μg/mL) only for 24 h, or co-treated with LPS (1 μg/mL) and C70PLY4 (100, 300, and 500 nM) for 24 h and the protein phosphorylation of ERK1/2 and NFκB-p65 subunit were examined.

QDLTAHFTTSIPLKGNVRNLSVKIRECTGLAWEWWRTVYEKTDLPLVRKRTISIWGTTLYPQVEDKVEND [C70PLY4]
serum sE-selectin level [1]: decreased
serum sICAM-1 level [1]: decreased sICAM-1
serum sVCAM-1 level [1]: decreased
neointima formation of aorta induced by STZ [2]: significantly attenuated the status of neointima formation
low shear stress induced cytoskeleton (F-actin) remodeling (HUVEC): almost block
low shear stress induced morphological change (HUVEC): almost block
LPS-induced ERK1/2 phosphorylation [3]: significantly inhibited
LPS-induced NFκB-p65 subunit phosphorylation [3]: significantly inhibited
